The test system of one data set is Luc-M7 cells. In words: Cell viability of Luc-M7 cells (Cell-Titer Glo). The data set is classed as cell-based. Further details: unit: μM. The settings on record: mock-infected Luc-M7 cells, 6 days. As for the experimental part:
(§1) Anti-HIV Assays (Multiple Round). The inhibitory effects of the tested compounds on HIV-1YU2 replication were determined by the level of luciferase expression after 6 days of infection using Bright-Glo assay (Promega). An amount of 1.5×10^4 Luc-M7 (a gift from Ned Landau) cells per ml were infected with HIV-1YU2 at a multiplicity of infection (MOI) of 3. The HIV-1 infected ([…] compound) or mock-infected (0-300 μM compound) Luc-M7 cells were placed in 96-well culture plates (100 μl/well) with 100 μl of various concentrations of the compounds with 20 μg/ml DEAE Dextran in triplicate and incubated at 37° C. under 5% CO2 at 100% humidity. After 6 days, cell viability was quantified by Cell-Titer Glo assay (Promega). […] On day 5 cell viability was determined in the mock-infected cells. FIGS. 12-18 show the anti-HIV assays for the examples of chemical compounds used according to the invention. After in-vitro assay, the chemical compounds in FIGS. 12-18 were selected for screening for cell viability and toxicity. Jurkat cells assay was used as screening assay. […] After five days, GFP expression was read. Cell viability was monitored with Alamar Blue assay. Luc M7 assay was designed to measure inhibitory activity of the chemical compounds to viral replication. After infection of cells with YU2 virus, plate cells in 96-well plate in the presence of six concentration of compounds in DMSO. At day 6, the number of cells in wells were read with Cell Titer Glo kit or by counting the number of cells infected with Bright Glo kit. 293T cells assay was designed to determine the toxicity. 293T cells were transfected with NL43. After four hours, transfected cells were plated in 96-well plate in DMSO and 2 μM Indinavir. 72 hours later, viral supernatant was collected and plated on J[…].

The next data set concerns HIV-1YU2. Description: Anti-HIV assay (multiple round), luciferase expression in Luc-M7 cells. The data set is classed as cell-based. The settings on record: Luc-M7 cells infected with HIV-1YU2, 6 days, Bright-Glo. As for the experimental part:
as §1

The target in data set [1] is N-terminal domain of the CA protein (Human immunodeficiency virus type 1 group M subtype B, UniProt P12493). As to conditions: 1 mM compound; peaks at 5.5 ppm and 8 ppm. The text has this:
(§2) The STD-NMR spectroscopy is an extremely powerful and sensitive technique to detect and identify the binding of low molecular weight (MW) ligands specific to a target protein of interest. […] This technique exploits the transfer of radio frequency saturation of the proton magnetization on the large protein to the low MW ligand during the brief period it resides within the binding pocket of the protein, before it is released into solution. It also exploits the large differences in the correlation times of the interacting molecules.

The target of data set [2] is C-terminal domain of the CA protein (Human immunodeficiency virus type 1 group M subtype B, UniProt P12493). As to conditions: 1 mM compound, 0.02 mM protein domain; peaks at 5.5 ppm and 8 ppm.
Text: as §2

In turn, `Cc1ncc(C[n+]2csc(CCOC(=O)C3C4CC5CC(C4)CC3C5)c2C)c(N)n1.Cl.[Cl-]` (stereo not shown) [Compound 26] came in with a TC50 in the data set on Luc-M7 cells of 70.4. Moreover, the IC50 (as a rule, the concentration that gives 50% inhibition) with HIV-1YU2 stood at 4.57 µM. The “binding to the NTD domain (STD-NMR)” value in data set [1] is listed as “binds to the NTD domain”. Moreover, the “binding to the CTD domain (STD-NMR)” value in data set [2] was “binding of the chemical compound 26 to the CTD domain is clearly indicated”.

Values taken from patent US20090176776A1, “SMALL MOLECULE INHIBITORS OF HIV-1 CAPSID ASSEMBLY” (UNIVERSITY OF ALABAMA AT BIRMINGHAM, priority 2005, published 2009).
